The values below are quoted from earlier work in patent US20100331420A1, “Combination Therapies for the Treatment of Obesity” (priority 2009, published 2010).

SMILES strings stand for the structures.

For this data set the following is noted: published studies of each weight loss medication.
As for `CCN[C@@H](C)Cc1cccc(C(F)(F)F)c1` [dexfenfluramine], the “weight loss of body weight for drug compared with placebo” value (from here on “weight loss … compared with placebo”) was “about 5%”. In the case of `CCCCCCCCCCC[C@@H](C[C@@H]1OC(=O)[C@H]1CCCCCC)OC(=O)[C@H](CC(C)C)NC=O` [orlistat], the “weight loss … compared with placebo” value was “about 5%”. Take `CC(C)CC(N(C)C)C1(c2ccc(Cl)cc2)CCC1` (stereo not drawn) [sibutramine]: the “weight loss … compared with placebo” value is reported as “about 5%”.
